# Source: patent publication US20240382629A1, “HETEROBIVALENT AND HOMOBIVALENT AGENTS TARGETING FIBROBLAST ACTIVATION PROTEIN ALPHA AND/OR PROSTATE-SPECIFIC MEMBRANE ANTIGEN” (The Johns Hopkins University, priority 2021, published 2024)
# Where “and” joins values, the source holds several entries; their conditions need not be identical. Equal values may be shown once.
# Legend:
# [1] = Biodistribution of representative compounds ([^18F]Sri-07-56, [^18F]Sri-07-52, [^18F]JHU1221823, [^18F]FAPI-74), tissue % ID/g with carrier or blocker; assay type: in vivo, mouse
# From the text: Biodistribution of Representative Compounds
# [2] = Biodistribution of representative compounds (Example 13), % ID/g in tissues of tumor-bearing mice; assay type: in vivo, mouse
# [3] = 60 min + Blocker cold FAPI-04 10 nmole, sub-heading prints [^18F]JHU1221785
# [4] = 60 min, 20 μCi per mouse, sub-heading prints [^18F]JHU1221785
structure (smiles),measurement,setting,value
N#CC1CCCN1C(=O)CNC(=O)c1ccnc2ccc(OCCCNC(=O)CCc3cn(CCC(NC(=O)c4ccc([18F])nc4)C(=O)NCCNC(=O)CN4CCN(CC(=O)O)CCN(CC(=O)O)CCN(CC(=O)O)CC4)nn3)cc12 (stereo not drawn) [[^18F]Sri-07-56],Bladder % ID/g Mean,[1],0.99 % ID/g
same,Brain % ID/g Mean,[1],0.22 % ID/g
same,Fat % ID/g Mean,[1],0.89 % ID/g
same,Femur % ID/g Mean,[1],1.32 % ID/g
same,Kidney % ID/g Mean,[1],2.10 % ID/g
same,Large intestine % ID/g Mean,[1],0.93 % ID/g
same,Muscle % ID/g Mean,[1],0.90 % ID/g
same,Pancreas % ID/g Mean,[1],2.18 % ID/g
same,Salivary gland % ID/g Mean,[1],3.55 % ID/g
same,Small intestine % ID/g Mean,[1],1.73 % ID/g
same,Stomach % ID/g Mean,[1],0.86 % ID/g
same,Tumor % ID/g Mean,[1],1.78 % ID/g
same,Bladder % ID/g,[1]; individual mice,0.86 % ID/g and 1.12 % ID/g
same,Brain % ID/g,[1]; individual mice,0.28 % ID/g and 0.16 % ID/g
same,Fat % ID/g,[1]; individual mice,0.38 % ID/g and 1.40 % ID/g
same,Femur % ID/g,[1]; individual mice,1.63 % ID/g and 1.01 % ID/g
same,Kidney % ID/g,[1]; individual mice,2.24 % ID/g and 1.96 % ID/g
same,Large intestine % ID/g,[1]; individual mice,0.90 % ID/g and 0.95 % ID/g
same,Muscle % ID/g,[1]; individual mice,0.74 % ID/g and 1.06 % ID/g
same,Pancreas % ID/g,[1]; individual mice,2.39 % ID/g and 1.96 % ID/g
same,Salivery gland % ID/g,[1]; individual mice,4.40 % ID/g and 2.70 % ID/g
same,Small intestine % ID/g,[1]; individual mice,2.06 % ID/g and 1.40 % ID/g
same,Stomach % ID/g,[1]; individual mice,1.05 % ID/g and 0.67 % ID/g
same,Tumor % ID/g,[1]; individual mice,1.86 % ID/g and 1.70 % ID/g
same,% ID/g Blood (individual mouse),"[2]; 60 min, 2 μCi per mouse",10.48 % ID/g and 7.56 % ID/g
same,% ID/g Heart (individual mouse),"[2]; 60 min, 2 μCi per mouse",4.72 % ID/g and 3.07 % ID/g
same,% ID/g Liver (individual mouse),"[2]; 60 min, 2 μCi per mouse",2.82 % ID/g and 2.25 % ID/g
same,% ID/g Lung (individual mouse),"[2]; 60 min, 2 μCi per mouse",5.06 % ID/g and 3.66 % ID/g
same,% ID/g Mean Blood,"[2]; 60 min, 2 μCi per mouse",9.02 % ID/g
same,% ID/g Mean Heart,"[2]; 60 min, 2 μCi per mouse",3.90 % ID/g
same,% ID/g Mean Liver,"[2]; 60 min, 2 μCi per mouse",2.54 % ID/g
same,% ID/g Mean Lung,"[2]; 60 min, 2 μCi per mouse",4.36 % ID/g
same,% ID/g Mean Spleen,"[2]; 60 min, 2 μCi per mouse",1.91 % ID/g
same,% ID/g Spleen (individual mouse),"[2]; 60 min, 2 μCi per mouse",2.19 % ID/g and 1.64 % ID/g
N#CC1CCCN1C(=O)CNC(=O)c1ccnc2ccc(OCCCNCC([18F])C(O)C(O)C(O)CO)cc12 (stereo not drawn) [[^18F]FAP-FDG],% ID/g Bladder (individual mouse),[2]; [3],1.45 % ID/g and 2.74 % ID/g
same,% ID/g Blood (individual mouse),[2]; [3],0.20 % ID/g and 0.25 % ID/g
same,% ID/g Brain (individual mouse),[2]; [3],4.18 % ID/g and 4.67 % ID/g
same,% ID/g Fat (individual mouse),[2]; [3],0.63 % ID/g and 0.26 % ID/g
same,% ID/g Femur (individual mouse),[2]; [3],1.33 % ID/g and 1.67 % ID/g
same,% ID/g Heart (individual mouse),[2]; [3],11.97 % ID/g and 17.79 % ID/g
same,% ID/g Kidney (individual mouse),[2]; [3],0.95 % ID/g and 0.87 % ID/g
same,% ID/g Large intestine (individual mouse),[2]; [3],3.51 % ID/g and 3.22 % ID/g
same,% ID/g Liver (individual mouse),[2]; [3],0.38 % ID/g and 0.55 % ID/g
same,% ID/g Lung (individual mouse),[2]; [3],2.25 % ID/g and 2.08 % ID/g
same,% ID/g Mean Bladder,[2]; [3],2.10 % ID/g
same,% ID/g Mean Blood,[2]; [3],0.22 % ID/g
same,% ID/g Mean Brain,[2]; [3],4.43 % ID/g
same,% ID/g Mean Fat,[2]; [3],0.44 % ID/g
same,% ID/g Mean Femur,[2]; [3],1.50 % ID/g
same,% ID/g Mean Heart,[2]; [3],14.88 % ID/g
same,% ID/g Mean Kidney,[2]; [3],0.91 % ID/g
same,% ID/g Mean Large intestine,[2]; [3],3.37 % ID/g
same,% ID/g Mean Liver,[2]; [3],0.47 % ID/g
same,% ID/g Mean Lung,[2]; [3],2.17 % ID/g
same,% ID/g Mean Muscle,[2]; [3],6.73 % ID/g
same,% ID/g Mean Pancreas,[2]; [3],1.01 % ID/g
same,% ID/g Mean Salivary gland,[2]; [3],3.76 % ID/g
same,% ID/g Mean Small intestine,[2]; [3],0.77 % ID/g
same,% ID/g Mean Spleen,[2]; [3],1.30 % ID/g
same,% ID/g Mean Stomach,[2]; [3],2.76 % ID/g
same,% ID/g Mean Tumor,[2]; [3],3.65 % ID/g
same,% ID/g Muscle (individual mouse),[2]; [3],6.83 % ID/g and 6.64 % ID/g
same,% ID/g Pancreas (individual mouse),[2]; [3],1.20 % ID/g and 0.82 % ID/g
same,% ID/g Salivery gland (individual mouse),[2]; [3],5.34 % ID/g and 2.19 % ID/g
same,% ID/g Small intestine (individual mouse),[2]; [3],0.61 % ID/g and 0.92 % ID/g
same,% ID/g Spleen (individual mouse),[2]; [3],0.92 % ID/g and 1.68 % ID/g
same,% ID/g Stomach (individual mouse),[2]; [3],3.50 % ID/g and 2.02 % ID/g
same,% ID/g Tumor (individual mouse),[2]; [3],3.33 % ID/g and 3.97 % ID/g
same,% ID/g Bladder (individual mouse),[2]; [4],2.55 % ID/g and 2.49 % ID/g
same,% ID/g Blood (individual mouse),[2]; [4],0.21 % ID/g and 0.25 % ID/g
same,% ID/g Brain (individual mouse),[2]; [4],5.31 % ID/g and 6.18 % ID/g
same,% ID/g Fat (individual mouse),[2]; [4],3.29 % ID/g and 1.13 % ID/g
same,% ID/g Femur (individual mouse),[2]; [4],2.28 % ID/g and 2.68 % ID/g
same,% ID/g Heart (individual mouse),[2]; [4],23.96 % ID/g and 16.00 % ID/g
same,% ID/g Kidney (individual mouse),[2]; [4],1.13 % ID/g and 2.01 % ID/g
same,% ID/g Large intestine (individual mouse),[2]; [4],4.03 % ID/g and 4.32 % ID/g
same,% ID/g Liver (individual mouse),[2]; [4],0.55 % ID/g and 0.70 % ID/g
same,% ID/g Lung (individual mouse),[2]; [4],2.15 % ID/g and 2.85 % ID/g
same,% ID/g Mean Bladder,[2]; [4],2.52 % ID/g
same,% ID/g Mean Blood,[2]; [4],0.23 % ID/g
same,% ID/g Mean Brain,[2]; [4],5.74 % ID/g
same,% ID/g Mean Fat,[2]; [4],2.21 % ID/g
same,% ID/g Mean Femur,[2]; [4],2.48 % ID/g
same,% ID/g Mean Heart,[2]; [4],19.98 % ID/g
same,% ID/g Mean Kidney,[2]; [4],1.57 % ID/g
same,% ID/g Mean Large intestine,[2]; [4],4.17 % ID/g
same,% ID/g Mean Liver,[2]; [4],0.63 % ID/g
same,% ID/g Mean Lung,[2]; [4],2.50 % ID/g
same,% ID/g Mean Muscle,[2]; [4],6.18 % ID/g
same,% ID/g Mean Pancreas,[2]; [4],1.33 % ID/g
same,% ID/g Mean Salivary gland,[2]; [4],5.31 % ID/g
same,% ID/g Mean Small intestine,[2]; [4],1.06 % ID/g
same,% ID/g Mean Spleen,[2]; [4],1.29 % ID/g
same,% ID/g Mean Stomach,[2]; [4],2.72 % ID/g
same,% ID/g Mean Tumor,[2]; [4],5.02 % ID/g
same,% ID/g Muscle (individual mouse),[2]; [4],7.65 % ID/g and 4.71 % ID/g
same,% ID/g Pancreas (individual mouse),[2]; [4],1.25 % ID/g and 1.42 % ID/g
same,% ID/g Salivery gland (individual mouse),[2]; [4],6.70 % ID/g and 3.91 % ID/g
same,% ID/g Small intestine (individual mouse),[2]; [4],1.21 % ID/g and 0.91 % ID/g
same,% ID/g Spleen (individual mouse),[2]; [4],1.20 % ID/g and 1.38 % ID/g
same,% ID/g Stomach (individual mouse),[2]; [4],2.04 % ID/g and 3.39 % ID/g
same,% ID/g Tumor (individual mouse),[2]; [4],4.12 % ID/g and 5.91 % ID/g
